Reference: patent US9670161B2, “5-fluoro-N-(pyridin-2-yl)pyridin-2-amine derivatives containing a sulfone group” (BAYER PHARMA AKTIENGESELLSCHAFT, priority 2012, dated 2017)
pIC50: −log10 of the molar value.

Assays:
[1] = target: CDK2/CycE (Homo sapiens (Human), UniProt P24941); test: CDK2/CycE kinase assay (TR-FRET, 10 μM ATP); format: biochemical; conditions: Method 2a
Excerpt: 2a. CDK2/CycE Kinase Assay:
CDK2/CycE-inhibitory activity of compounds of the present invention was quantified employing the CDK2/CycE TR-FRET assay as described in the following paragraphs:
Recombinant fusion proteins of GST and human CDK2 and of GST and human CycE, expressed in insect cells (Sf9) and purified by Glutathion-Sepharose affinity chromatography, were purchased from ProQinase GmbH (Freiburg, Germany). As substrate for the kinase reaction biotinylated peptide biotin-Ttds-YISPLKSPYKISEG (C-terminus in amid form) was used which can be purchased e.g. form the company JERINI Peptide Technologies (Berlin, Germany).
(§1) For the assay 50 nl of a 100 fold concentrated solution of the test compound in DMSO was pipetted into a black low volume 384 well microtiter plate (Greiner Bio-One, Frickenhausen, Germany), 2 μl of a solution of CDK2/CycE in aqueous assay buffer [50 mM Tris/HCl pH 8.0, 10 mM MgCl2, 1.0 mM dithiothreitol, 0.1 mM sodium ortho-vanadate, 0.01% (v/v) Nonidet-P40 (Sigma)] were added and the mixture was incubated for 15 min at 22° C. to allow pre-binding of the test compounds to the enzyme before the start of the kinase reaction. Then the kinase reaction was started by the addition of 3 μl of a solution of adenosine-tri-phosphate (ATP, 16.7 μM=>final conc. in the 5 μl assay volume is 10 μM) and substrate (1.25 μM=>final conc. in the 5 μl assay volume is 0.75 μM) in assay buffer and the resulting mixture was incubated for a reaction time of 25 min at 22° C. The concentration of CDK2/CycE was adjusted depending of the activity of the enzyme lot and was chosen appropriate to have the assay in the linear range, typical concentrations were in the range of 130 ng/mL. The reaction was stopped by the addition of 5 μl of a solution of TR-FRET detection reagents (0.2 μM streptavidine-XL665 [Cisbio Bioassays, Codolet, France] and 1 nM anti-RB(pSer807/pSer811)-antibody from BD Pharmingen [#558389] and 1.2 nM LANCE EU-W1024 labeled anti-mouse IgG antibody [Perkin-Elmer, product no. AD0077]) in an aqueous EDTA-solution (100 mM EDTA, 0.2% (w/v) bovine serum albumin in 100 mM HEPES/NaOH pH 7.0).
(§2) The resulting mixture was incubated 1 h at 22° C. to allow the formation of complex between the phosphorylated biotinylated peptide and the detection reagents. Subsequently the amount of phosphorylated substrate was evaluated by measurement of the resonance energy transfer from the Eu-chelate to the streptavidine-XL. Therefore, the fluorescence emissions at 620 nm and 665 nm after excitation at 350 nm was measured in a TR-FRET reader, e.g. a Rubystar (BMG Labtechnologies, Offenburg, Germany) or a Viewlux (Perkin-Elmer). The ratio of the emissions at 665 nm and at […] was taken as the measure for the amount of phosphorylated substrate. The data were normalised (enzyme reaction without inhibitor=0% inhibition, all other assay components but no enzyme=100% inhibition).

[2] = target: CDK9/CycT1 (Homo sapiens (Human), UniProt P50750); test: CDK9/CycT1 high ATP kinase assay (TR-FRET, 2 mM ATP); format: biochemical; conditions: Method 1b
Chain of CDK9/CycT1 (P50750 whole entry): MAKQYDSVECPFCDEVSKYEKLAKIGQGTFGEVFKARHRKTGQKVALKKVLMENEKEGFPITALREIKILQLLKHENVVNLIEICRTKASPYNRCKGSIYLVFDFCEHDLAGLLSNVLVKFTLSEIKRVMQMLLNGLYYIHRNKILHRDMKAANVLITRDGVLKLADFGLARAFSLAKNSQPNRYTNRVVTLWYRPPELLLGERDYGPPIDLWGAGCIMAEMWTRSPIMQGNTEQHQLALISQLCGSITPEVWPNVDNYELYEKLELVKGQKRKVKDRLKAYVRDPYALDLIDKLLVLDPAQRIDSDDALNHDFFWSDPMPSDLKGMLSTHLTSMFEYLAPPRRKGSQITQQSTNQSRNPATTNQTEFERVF
Chain of CDK9/CycT1 (O60563 whole entry partner): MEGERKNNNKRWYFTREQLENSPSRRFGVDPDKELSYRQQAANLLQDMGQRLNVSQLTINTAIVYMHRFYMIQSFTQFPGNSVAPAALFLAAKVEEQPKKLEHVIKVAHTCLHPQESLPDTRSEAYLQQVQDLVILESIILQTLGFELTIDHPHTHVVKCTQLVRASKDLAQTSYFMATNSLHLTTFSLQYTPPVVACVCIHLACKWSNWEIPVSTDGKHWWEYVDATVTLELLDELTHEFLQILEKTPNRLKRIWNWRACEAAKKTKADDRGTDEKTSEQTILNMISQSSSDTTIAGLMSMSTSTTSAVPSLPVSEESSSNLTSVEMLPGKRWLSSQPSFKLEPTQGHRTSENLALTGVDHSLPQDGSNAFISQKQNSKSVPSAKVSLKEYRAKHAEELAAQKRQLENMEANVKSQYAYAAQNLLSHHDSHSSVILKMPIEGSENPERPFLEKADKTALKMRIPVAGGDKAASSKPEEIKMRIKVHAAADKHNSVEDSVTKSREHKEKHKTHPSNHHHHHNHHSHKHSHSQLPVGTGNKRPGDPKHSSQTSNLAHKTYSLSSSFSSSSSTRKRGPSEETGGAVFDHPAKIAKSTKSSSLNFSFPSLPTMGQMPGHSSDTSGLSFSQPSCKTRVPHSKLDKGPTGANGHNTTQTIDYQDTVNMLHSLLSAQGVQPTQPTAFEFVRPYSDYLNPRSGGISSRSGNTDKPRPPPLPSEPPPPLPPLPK
Description: 1b. CDK9/CycT1 High ATP Kinase Assay
CDK9/CycT1-inhibitory activity of compounds of the present invention at a high ATP concentration after preincubation of enzyme and test compounds was quantified employing the CDK9/CycT1 TR-FRET assay as described in the following paragraphs.
Recombinant full-length His-tagged human CDK9 and CycT1, expressed in insect cells and purified by Ni-NTA affinity chromatography, were purchase from Invitrogen (Cat. No PV4131). As substrate for the kinase reaction biotinylated peptide biotin-Ttds-YISPLKSPYKISEG (C-terminus in amid form) was used which can be purchased e.g. form the company JERINI peptide technologies (Berlin, Germany).
as §1, with “CDK9/CycT1” for “CDK2/CycE”, “3.3 mM=>final conc. in the 5 μl assay volume is 2 mM) and substrate (1.67” for “16.7”, “1” for “10 μM) and substrate (1.25 μM=>final conc. in the 5 μl assay volume is 0.75”, “0.5 μg/mL.” for “130 ng/mL.”
as §2, with “HTRF” for “TR-FRET”

SMILES | pIC50 [1] | pIC50 [2]
COc1cc(F)ccc1-c1cc(Nc2cc(CS(C)(=O)=O)cc(C(F)F)n2)ncc1F [Example 5, N-{6-(Difluoromethyl)-4-[(methylsulfonyl)methyl]pyridin-2-yl}-5-fluoro-4-(4-fluoro-2-methoxyphenyl)pyridin-2-amine] | 8.15 | 9.00
COc1cc(F)ccc1-c1cc(Nc2cc(CS(C)(=O)=O)ccn2)ncc1F [Example 1, 5-Fluoro-4-(4-fluoro-2-methoxyphenyl)-N-{4-[(methylsulfonyl)methyl]pyridin-2-yl}pyridin-2-amine] | 6.77 | 8.70
COc1cc(F)ccc1-c1cc(Nc2cc(CS(C)(=O)=O)cc(C)n2)ncc1F [Example 2, 5-Fluoro-4-(4-fluoro-2-methoxyphenyl)-N-{6-methyl-4-[(methylsulfonyl)methyl]pyridin-2-yl}pyridin-2-amine] | 7.15 | 8.70
COc1cc(F)ccc1-c1cc(Nc2cc(CS(C)(=O)=O)cc(F)n2)ncc1F [Example 3, 5-Fluoro-4-(4-fluoro-2-methoxyphenyl)-N-{6-fluoro-4-[(methylsulfonyl)methyl]pyridin-2-yl}pyridin-2-amine] | 7.19 | 8.70
COc1cc(F)ccc1-c1cc(Nc2cc(CS(C)(=O)=O)cc(C(F)(F)F)n2)ncc1F [Example 4, 5-Fluoro-4-(4-fluoro-2-methoxyphenyl)-N-{4-[(methylsulfonyl)methyl]-6-(trifluoromethyl)pyridin-2-yl}pyridin-2-amine] | 7.28 | 8.52
